Test results as given in ChEMBL document CHEMBL6127112, “Discovery of Novel Nonpeptidic Proteasome Inhibitors Using Covalent Virtual Screening and Biological Evaluation” (ACS Med Chem Lett, 2024).
Blank lines part the entries; values can stand above or below the compound they belong to. Calls of active or inactive are those of the source. The rule behind the calls is not given here.

Experiments:
[1] = target: T1, 20S proteasome (Homo sapiens) (UniProt P49721+P20618+P28074+P28062+P28065+P28072+P25786+P25787+P25788+P25789+P28066+P60900+O14818+Q8TAA3+P40306+A5LHX3+P49720+P28070+Q99436); test: Inhibition of human erythrocyte-derived 20S constitutive proteasome protein at 100 uM using Suc-LLVY-AMC as substrate preincubated for 15 mins followed by substrate addition and measured after 30 mins by multimode plate reader analysis relative to control; conditions: time 45.0 min
20S proteasome = test: (§1) Inhibition of human erythrocyte-derived 20S constitutive proteasome protein using Suc-LLVY-AMC as substrate preincubated for 15 mins followed by substrate addition and measured after 30 mins by multimode plate reader analysis
[2] = target: T1, 20S proteasome (Homo sapiens); test: as §1; conditions: time 45.0 min
[3] = target: T1, 20S proteasome (Homo sapiens); test: Inhibition of human 20S immunoproteasome protein at 100 uM using Suc-LLVY-AMC as substrate preincubated for 15 mins followed by substrate addition and measured after 30 mins by multimode plate reader analysis relative to control; type: protein-complex assay; conditions: time 45.0 min
NCI-H929 = test: Antiproliferative activity against human NCI-H929 cells assessed as reduction in cell viability incubated for 72 hrs by CellTiter 96 non-radioactive cell proliferation assay; type: functional, cell-based
[4] = Cytotoxicity against HEK293T cells assessed as reduction in cell viability incubated for 72 hrs by CellTiter 96 non-radioactive cell proliferation assay; type: toxicity, cell-based, HEK-293T; conditions: human
[5] = target: Angiotensin-converting enzyme 2 (Homo sapiens, UniProt Q9BYF1); test: Inhibition of human His-tagged ACE2 (18 to 740 residues) using ACE2 fluorogenic substrate incubated for 60 mins by fluorescence based assay
Cathepsin B = Cathepsin B (Homo sapiens, UniProt P07858); test: Inhibition of human Cathepsin B using Ac-RR-AFC as substrate preincubated for 10 to 15 mins followed by substrate addition and measured for 30 to 60 mins by fluorescence based assay
Caspase-2 = target: T2, Caspase-2 (Homo sapiens, UniProt P42575); test: Inhibition of Caspase-2 (unknown origin) by fluorometric assay
T2 sequence (P42575 whole entry): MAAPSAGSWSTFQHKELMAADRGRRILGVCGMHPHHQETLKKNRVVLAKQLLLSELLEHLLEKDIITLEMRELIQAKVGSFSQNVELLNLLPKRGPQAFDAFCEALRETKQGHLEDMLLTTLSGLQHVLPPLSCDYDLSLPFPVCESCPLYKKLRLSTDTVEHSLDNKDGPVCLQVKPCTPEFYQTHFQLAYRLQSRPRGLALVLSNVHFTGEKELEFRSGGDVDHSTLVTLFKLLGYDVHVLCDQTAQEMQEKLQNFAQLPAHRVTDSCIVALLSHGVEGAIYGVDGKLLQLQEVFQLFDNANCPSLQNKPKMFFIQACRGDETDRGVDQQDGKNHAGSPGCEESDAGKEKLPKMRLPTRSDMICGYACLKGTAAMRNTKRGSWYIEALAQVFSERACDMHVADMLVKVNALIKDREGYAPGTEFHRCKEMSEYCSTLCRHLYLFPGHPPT

Procathepsin L = Procathepsin L (Homo sapiens, UniProt P07711); test: Inhibition of Cathepsin L (unknown origin) using AFC based peptide as substrate by fluorometric assay
Chain of Procathepsin L (P07711 whole entry): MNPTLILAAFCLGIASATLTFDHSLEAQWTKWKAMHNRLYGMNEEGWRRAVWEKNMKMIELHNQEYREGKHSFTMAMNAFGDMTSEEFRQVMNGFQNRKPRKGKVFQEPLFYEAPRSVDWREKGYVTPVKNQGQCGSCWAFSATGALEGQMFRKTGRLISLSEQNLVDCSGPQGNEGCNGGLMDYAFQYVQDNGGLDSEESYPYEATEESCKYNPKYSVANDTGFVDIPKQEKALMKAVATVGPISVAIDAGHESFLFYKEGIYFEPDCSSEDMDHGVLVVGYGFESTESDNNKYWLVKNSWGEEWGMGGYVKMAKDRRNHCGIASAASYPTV

Chain of Angiotensin-converting enzyme 2 (Q9BYF1 whole entry, the tested form may be a part): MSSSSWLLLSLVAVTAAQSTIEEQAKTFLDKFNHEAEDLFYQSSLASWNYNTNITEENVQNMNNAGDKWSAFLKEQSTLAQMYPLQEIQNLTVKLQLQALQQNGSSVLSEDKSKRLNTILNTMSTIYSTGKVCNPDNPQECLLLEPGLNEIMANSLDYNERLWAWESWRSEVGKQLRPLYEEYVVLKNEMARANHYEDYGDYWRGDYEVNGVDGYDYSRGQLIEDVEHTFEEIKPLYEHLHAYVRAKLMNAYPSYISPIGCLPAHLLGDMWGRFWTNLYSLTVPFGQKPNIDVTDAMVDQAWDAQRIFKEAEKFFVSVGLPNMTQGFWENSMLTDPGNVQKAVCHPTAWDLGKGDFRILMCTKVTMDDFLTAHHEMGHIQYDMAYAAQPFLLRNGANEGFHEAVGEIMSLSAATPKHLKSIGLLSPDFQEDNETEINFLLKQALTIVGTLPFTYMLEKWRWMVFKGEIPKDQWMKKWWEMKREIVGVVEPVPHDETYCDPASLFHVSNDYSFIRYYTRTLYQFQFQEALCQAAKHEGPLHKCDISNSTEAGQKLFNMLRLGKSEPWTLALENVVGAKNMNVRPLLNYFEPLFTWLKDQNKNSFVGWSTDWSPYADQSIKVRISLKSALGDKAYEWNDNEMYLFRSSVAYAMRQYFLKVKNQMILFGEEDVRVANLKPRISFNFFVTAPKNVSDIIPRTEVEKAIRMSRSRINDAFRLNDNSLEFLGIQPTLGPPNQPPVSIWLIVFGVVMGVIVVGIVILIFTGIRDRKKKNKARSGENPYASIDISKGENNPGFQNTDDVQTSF

Compound: O=C(NCc1ccccc1)C(=O)c1cn(CC(=O)N2CCOCC2)c2ccccc12
inhibition [1]: 26%

Compound: COc1ccc(NC(=O)C(=O)c2cn(CC(=O)N3CCCCC3)c3ccccc23)cc1OC
Activity (NCI-H929): Dose-Dependent Effect
CC50 at 72 h [4]: > 200 µM
IC50 [5]: > 100 µM
IC50 (Cathepsin B): > 100 µM
IC50 (20S proteasome): 18.5 µM
IC50 (Caspase-2): > 100 µM
IC50 (Procathepsin L): > 100 µM

Compound: CC[C@@H](C)NC(=O)C(=O)c1cn(CC(=O)N2CCOCC2)c2ccccc12
IC50 (20S proteasome): 69.2 µM

Compound: CCN(CC)C(=O)Cn1cc(C(=O)C(=O)Nc2ccc3c(c2)OCCO3)c2ccccc21
Activity (NCI-H929): Dose-Dependent Effect
CC50 at 72 h [4]: > 200 µM
IC50 [5]: > 100 µM
IC50 (Cathepsin B): > 100 µM
IC50 (20S proteasome): 12.4 µM
IC50 (Caspase-2): > 100 µM
IC50 (Procathepsin L): > 100 µM

Compound: CC(=O)Nc1ccc(NC(=O)C(=O)c2cn(CC(=O)N3CCOCC3)c3ccccc23)cc1
inhibition [2]: inactive

Compound: COc1cc(NC(=O)C(=O)c2ccn(Cc3ccccc3)c2)cc(OC)c1
inhibition [2]: inactive

Compound: O=C(Nc1ccc2c(c1)OCCO2)C(=O)c1cn(Cc2ccc(Cl)cc2)c2ccccc12
inhibition [2]: inactive

Compound: O=C(Nc1ccccc1-c1ccccc1)C(=O)c1cn(CC(=O)N2CCOCC2)c2ccccc12
inhibition [2]: inactive

More lines, now with the values ahead:

inhibition [1]: 55%
Compound: O=C(Nc1ccccc1)C(=O)c1cn(CC(=O)N2CCOCC2)c2ccccc12

IC50 (20S proteasome): 40.8 µM
Compound: O=C(Nc1ccc2c(c1)OCCO2)C(=O)c1cn(CC(=O)N2CCOCC2)c2ccccc12

IC50 (20S proteasome): 31.3 µM
Compound: CC(=O)c1cccc(NC(=O)C(=O)c2cn(CC(=O)N3CCOCC3)c3ccccc23)c1

inhibition [2]: Dose-Dependent Effect
IC50 (20S proteasome): 107 µM
inhibition [1]: 50%
inhibition [3]: 50%
Compound: COc1ccc(NC(=O)C(=O)c2cn(CC(=O)N3CCOCC3)c3ccccc23)cc1OC

inhibition [2]: inactive
Compound: Cc1ccc(NC(=O)C(=O)c2cn(CC(=O)N3CCOCC3)c3ccccc23)c(C)c1
